Results: ChEMBL document CHEMBL1124186, “Synthesis and evaluation of tylosin-related macrolides modified at the aldehyde function: a new series of orally effective antibiotics” (1988)

Key:
[1] = system: Streptococcus viridans; test: In vitro antimicrobial activity against aerobic bacteria Streptococcus viridans 9943; assay type: functional
[2] = system: Enterococcus faecium; test: In vitro antimicrobial activity against Streptococcus faecium X66; assay type: functional, streptococcus fae-cium
[3] = system: Streptococcus; test: In vitro antimicrobial activity against aerobic bacteria Streptococcus D 9960; assay type: functional
[4] = system: Clostridioides difficile; test: In vitro antimicrobial activity against anaerobic bacteria Clostridium difficile 2994; assay type: functional
[5] = system: Peptostreptococcus anaerobius; test: In vitro antimicrobial activity against anaerobic bacteria eubacterium peptostreptococcus anaerobius 1428,; assay type: functional
[6] = system: Bacteroides fragilis; test: In vitro antimicrobial activity against anaerobic bacteria bacteroides fragilis 1877; assay type: functional
[7] = system: Streptococcus pneumoniae; test: In vivo effective dose against experimental infections in mice Strep. pneumoniae park when administered orally; assay type: functional; settings: po
[8] = system: Fusobacterium necrophorum; test: In vitro antimicrobial activity against anaerobic bacteria usobacterium necrophorum 6054A; assay type: functional
[9] = system: Haemophilus influenzae; test: In vitro antimicrobial activity against aerobic bacteria Haemophilus influenzae 76; assay type: functional
[10] = system: Prevotella melaninogenica; test: In vitro antimicrobial activity against anaerobic bacteria bacteroides melaninogenicus 2736; assay type: functional
[11] = system: Staphylococcus aureus; test: In vitro antimicrobial activity against aerobic bacteria Staphylococcus aureus X400; assay type: functional
[12] = system: Fusobacterium; test: In vitro antimicrobial activity against anaerobic bacteria fusobacterium symbiosum 1470; assay type: functional
[13] = system: Haemophilus influenzae; test: In vitro antimicrobial activity against aerobic bacteria Haemophilus influenzae MX366; assay type: functional
[14] = system: Streptococcus pneumoniae; test: In vitro antimicrobial activity against Streptococcus pneumoniae; assay type: functional
[15] = system: Collinsella aerofaciens; test: In vitro antimicrobial activity against anaerobic bacteria eubacterium aerofaciens 1235; assay type: functional
[16] = system: Staphylococcus aureus; test: In vitro antimicrobial activity against aerobic bacteria Staphylococcus aureus V135; assay type: functional
[17] = system: Streptococcus; test: In vitro antimicrobial activity against aerobic bacteria Streptococcus B 8; assay type: functional
[18] = system: Staphylococcus aureus; test: In vitro antimicrobial activity against aerobic bacteria Staphylococcus aureus 513E; assay type: functional
[19] = system: Streptococcus sanguinis; test: In vitro antimicrobial activity against aerobic bacteria Streptococcus sanguis MX132; assay type: functional
[20] = system: Staphylococcus aureus; test: In vitro antimicrobial activity against Staphylococcus aureus X1; assay type: functional
[21] = system: Clostridium septicum; test: In vitro antimicrobial activity against anaerobic bacteria clostridium septicum 1128; assay type: functional
[22] = system: Streptococcus; test: In vitro antimicrobial activity against aerobic bacteria Streptococcus D 8043; assay type: functional
[23] = system: Staphylococcus aureus; test: In vivo effective dose against experimental infections in mice Staphylococcus aureus X1 when administered sc; assay type: functional
[24] = system: Staphylococcus epidermidis; test: In vitro antimicrobial activity against Staphylococcus epidermidis EPI1; assay type: functional
[25] = system: Bacteroides thetaiotaomicron; test: In vitro antimicrobial activity against anaerobic bacteria bacteroides thetaiotaomicron 1438; assay type: functional
[26] = system: Streptococcus; test: In vitro antimicrobial activity against aerobic bacteria Streptococcus G Kruder; assay type: functional; settings: Streptococcus; read-out: MIC
[27] = system: Chlamydia trachomatis; test: In vitro antimicrobial activity against chlamydia trachomatis.; assay type: functional
[28] = system: Prevotella melaninogenica; test: In vitro antimicrobial activity against anaerobic bacteria bacteroides melaninogenicus 1856,; assay type: functional
[29] = system: Streptococcus; test: In vitro antimicrobial activity against aerobic bacteria Streptococcus B 14; assay type: functional
[30] = system: Streptococcus pyogenes; test: In vitro antimicrobial activity against Streptococcus pyogenes C203; assay type: functional
[31] = system: Staphylococcus epidermidis; test: In vitro antimicrobial activity against aerobic bacteria Streptococcus epi 270; assay type: functional
[32] = system: Eikenella corrodens; test: In vitro antimicrobial activity against anaerobic bacteria bacteroides corrodens 1874; assay type: functional
[33] = system: Anaerococcus prevotii; test: In vitro antimicrobial activity against anaerobic bacteria peptococcus prevoti 1281; assay type: functional
[34] = system: Bacteroides fragilis; test: In vitro antimicrobial activity against anaerobic bacteria bacteroides fragilis 1936B,; assay type: functional
[35] = system: Staphylococcus aureus; test: In vitro antimicrobial activity against aerobic bacteria Staphylococcus aureus V140,; assay type: functional
[36] = In vitro antimicrobial activity against anaerobic bacteria peptostreptococcus intermedius 1264; assay type: functional
[37] = system: Phocaeicola vulgatus; test: In vitro antimicrobial activity against anaerobic bacteria bacteroides vulgatus 1211; assay type: functional
[38] = system: Streptococcus pyogenes; test: In vivo effective dose against experimental infections in rodent caused by Streptococcus pyogenes C203 when administered sc; assay type: functional
[39] = system: Streptococcus; test: In vitro antimicrobial activity against aerobic bacteria Streptococcus C 24; assay type: functional
[40] = system: Staphylococcus aureus; test: In vivo effective dose against experimental infections in mice Staphylococcus aureus X1 when administered orally; assay type: functional; settings: po
[41] = system: Streptococcus pneumoniae; test: In vivo effective dose against experimental infections in mice Strep. pneumoniae park when administered sc; assay type: functional
[42] = system: Streptococcus; test: In vitro antimicrobial activity against aerobic bacteria Streptococcus D 2041; assay type: functional
[43] = system: Staphylococcus epidermidis; test: In vitro antimicrobial activity against aerobic bacteria Streptococcus epi 222; assay type: functional
[44] = system: Bacteroides fragilis; test: In vitro antimicrobial activity against anaerobic bacteria bacteroides fragilis 111; assay type: functional
[45] = system: Streptococcus pneumoniae; test: In vitro antimicrobial activity against aerobic bacteria Streptococcus pneumoniae B1-438; assay type: functional, streptococcus pneum
[46] = system: Staphylococcus aureus; test: In vitro antimicrobial activity against aerobic bacteria Staphylococcus aureus V41; assay type: functional
[47] = system: Clostridium perfringens; test: In vitro antimicrobial activity against anaerobic bacteria clostridium perfringens 81,; assay type: functional
[48] = system: Cutibacterium acnes; test: In vitro antimicrobial activity against anaerobic bacteria propionibacterium acnes 79; assay type: functional
[49] = system: Peptoniphilus asaccharolyticus; test: In vitro antimicrobial activity against anaerobic bacteria peptococcus asaccharolyticus 1302; assay type: functional
[50] = system: Haemophilus influenzae; test: In vitro antimicrobial activity against Haemophilus influenzae.; assay type: functional
[51] = system: Streptococcus; test: In vitro antimicrobial activity against aerobic bacteria Streptococcus B 5; assay type: functional

CC[C@H]1OC(=O)C[C@@H](O)[C@H](C)[C@@H](O[C@@H]2O[C@H](C)[C@@H](O)[C@H](N(C)C)[C@H]2O)[C@@H](CCN=[N+]=[N-])C[C@@H](C)C(=O)/C=C/C(C)=C/[C@@H]1CO[C@@H]1O[C@H](C)[C@@H](O)[C@@H](OC)[C@H]1OC
3.8 mg/kg: ED50 [38]
0.25 µg/mL: MIC [11] | MIC [16] | MIC [30] | MIC [35] | MIC [43]
18 mg/kg: ED50 [40]
16 µg/mL: MIC [8] | MIC [29] | MIC [42] | MIC [48] | MIC [50]
0.12 µg/mL: MIC [18] | MIC [20] | MIC [24] | MIC [46]
< 0.5 µg/mL: MIC [4] | MIC [5] | MIC [21] | MIC [47]
32 µg/mL: MIC [13]
> 20 mg/kg: ED50 [41]
> 50 mg/kg: ED50 [7]
64 µg/mL: MIC [26]
4 µg/mL: MIC [2] | MIC [9] | MIC [22]
1 µg/mL: MIC [19] | MIC [28] | MIC [49]
2 µg/mL: MIC [6] | MIC [10] | MIC [12] | MIC [14] | MIC [15] | MIC [25] | MIC [32] | MIC [33] | MIC [34] | MIC [36] | MIC [37] | MIC [44]
2.8 mg/kg: ED50 [23]
> 128 µg/mL: MIC [1] | MIC [31] | MIC [45]
8 µg/mL: MIC [3] | MIC [17] | MIC [51]
0.5 µg/mL: MIC [27] | MIC [39]
